Experimental data reported in patent US12590103B2, “Polymorph of EP4 receptor antagonist, preparation method therefor and use thereof” (SHANGHAI YUYAO BIOTECH LTD., priority 2020, dated 2026).
Values belong to the compound of their own block, whether it stands above or below them.

Key:
Type in all cases: physicochemical
[1] = Volatilization at room temperature, sample checked by 1H NMR; details: volatilized at room temperature in THF, MeOH-THF and THF-water
Method: The structure of the solid sample and the solvent contained in the sample were confirmed by ^1H NMR. The instrument used for ^1H NMR analysis is Bruker Advance 300 equipped with B-ACS 120 automatic sampling system.
Single solvent volatilization: an appropriate amount of initial raw materials of compound I was dissolved in the solvents shown in 1-6 in Table 8 to prepare a solution with a concentration of 8 to 20 mg/mL. The obtained solution was filtered, the filtrate was volatilized at room temperature, and the obtained solid was characterized by XRPD.
Binary solvent volatilization: an appropriate amount of initial raw materials of compound I was dissolved in the solvents shown in 7-25 of Table 8 to prepare a solution with a concentration of 10 mg/mL. After filtration, the resulting filtrate was then mixed with solvent −2; then volatilized at room temperature. A total of 19 solvent systems were used to carry out the volatilization experiment of binary solvent, and the obtained solid was characterized by XRPD.

[2] = XRPD characterization after heating (thermal crystal transformation)
Method: (§1) The solid samples obtained from the experiment were analyzed by D8 advance powder X-ray diffraction analyzer (Bruker). The instrument is equipped with a LynxEye detector, and the ray species is Cu Kα (λ=1.54184 Å). The 2θ scanning range of the sample is from 3° to 40°, and the scanning step is 0.02°. When measuring the sample, the light tube voltage and light tube current were 40 KV and 40 mA respectively.

[3] = Suspension crystal transformation experiment of Polymorphic Form I and Polymorphic Form II; details: concluded from suspension crystal transformation at RT and 50° C.
Method: Suspension crystal transformation experiments were carried out on Polymorph I and polymorph II at room temperature and 50° C. respectively (Table 13). The resulting solid was characterized by XRPD.

[4] = Stability determination at 25° C./92.5% RH (XRPD); details: 25° C./92.5% RH for 9 days
Method: as §1

[5] = Dynamic water vapor adsorption (DVS)
Method: The instrument model used for dynamic moisture absorption and desorption analysis is IGA Sorp(Hidentity Isochema). The sample measurement adopts gradient mode, the relative humidity range of the test is 0% to 90%, and the humidity increment of each gradient is 10%. The specific parameters are as follows: • Sample temperature: 25° C. • Temperature stability: 0.1° C./min • Flow rate: 250 mL/min • Scan: 2 • Model: F1 • Minimum time: 30 min • Maximum time: 120 min • Waiting cap: 98% • Start: Adsorption Scan • Adsorption humidity (%):0, 10, 20, 30, 40, 50, 60, 70, 80, 90; • Desorption humidity (%):80, 70, 60, 50, 40, 30, 20, 10, 0.
The initial raw material of Compound I was slurried in acetone for 4 hours, filtered and the resulting solid was characterized by XRPD, PLM, TGA, DSC and DVS.

[6] = DSC heat treatment (heating-cooling-heating cycle) with XRPD; details: RT to 260° C., to −30° C., to 300° C.
Method: The DSC heating-cooling-heating cycle was used to try to find a crystal form with a higher melting point.
During the cooling process, there is an obvious exothermic peak. The initial temperature of the exothermic peak is 206.8° C., which should be caused by crystal transformation. XRPD characterization was performed on three different positions during DSC treatment.

Structure (SMILES): C[C@H](NC(=O)c1c(Cc2ccc(F)cc2)sc2c1CCOC2)c1ccc(C(=O)O)cc1 [compound I, (S)-4-(1-(2-(4-fluorobenzyl)-4,7-dihydro-5H-thieno [2,3-c]pyran-3-carboxamido)ethyl) benzoic acid]
- chemical stability of the sample (1H NMR) [1]: degraded

Structure (SMILES): C[C@H](NC(=O)c1c(Cc2ccc(F)cc2)sc2c1CCOC2)c1ccc(C(=O)O)cc1 [polymorphic Form I, (S)-4-(1-(2-(4-fluorobenzyl)-4,7-dihydro-5H-thieno [2,3-c]pyran-3-carboxamido)ethyl) benzoic acid]
- thermodynamic stability of the crystal form [3]: thermodynamically stable crystal form
- crystal form by XRPD after storage in high humidity [4]: remain unchanged
- polymorph of the sample before and after moisture absorption ([5]; DVS 0% to 90% RH): does not change
- moisture absorbed (DVS) ([5]; at 80% RH, 25° C.): < 2%
- crystal form by XRPD at positions 1, 2 and 3 of the DSC treatment [6]: all polymorphic Form I

Structure (SMILES): C[C@H](NC(=O)c1c(Cc2ccc(F)cc2)sc2c1CCOC2)c1ccc(C(=O)O)cc1 [polymorphic Form II, (S)-4-(1-(2-(4-fluorobenzyl)-4,7-dihydro-5H-thieno [2,3-c]pyran-3-carboxamido)ethyl) benzoic acid]
- crystal form by XRPD after heating ([2]; heated to 200° C.): transformed into polymorphic Form I

Further lines, results first:

- crystal form by XRPD after heating ([2]; heated to about 236° C.): transformed into polymorphic Form I
Structure (SMILES): C[C@H](NC(=O)c1c(Cc2ccc(F)cc2)sc2c1CCOC2)c1ccc(C(=O)O)cc1 [polymorphic Form VI, (S)-4-(1-(2-(4-fluorobenzyl)-4,7-dihydro-5H-thieno [2,3-c]pyran-3-carboxamido)ethyl) benzoic acid]

- crystal form by XRPD after heating ([2]; heated to 200° C.): converted into the polymorphic Form I
Structure (SMILES): C[C@H](NC(=O)c1c(Cc2ccc(F)cc2)sc2c1CCOC2)c1ccc(C(=O)O)cc1 [polymorphic Form V, (S)-4-(1-(2-(4-fluorobenzyl)-4,7-dihydro-5H-thieno [2,3-c]pyran-3-carboxamido)ethyl) benzoic acid]

- crystal form by XRPD after heating ([2]; heated to 240° C.): transformed into polymorphic Form I
Structure (SMILES): C[C@H](NC(=O)c1c(Cc2ccc(F)cc2)sc2c1CCOC2)c1ccc(C(=O)O)cc1 [polymorphic Form III, (S)-4-(1-(2-(4-fluorobenzyl)-4,7-dihydro-5H-thieno [2,3-c]pyran-3-carboxamido)ethyl) benzoic acid]

- crystal form by XRPD after heating ([2]; heated to 200° C.): transformed into polymorphic Form I
Structure (SMILES): C[C@H](NC(=O)c1c(Cc2ccc(F)cc2)sc2c1CCOC2)c1ccc(C(=O)O)cc1 [polymorphic Form IV, (S)-4-(1-(2-(4-fluorobenzyl)-4,7-dihydro-5H-thieno [2,3-c]pyran-3-carboxamido)ethyl) benzoic acid]
